# Experimental data from US20180282279A1, “Pantothenamide Analogues” (Radboud Universitair Medisch Centrum, priority 2014, published 2018).
# Where two headings read alike, the source gives them in different places.
# Columns and labels:
# [1] = test system: Plasmodium falciparum NF54 parasites; assay: P. falciparum asexual blood stage replication assay (SYBR Green); type: cell-based; settings: NF54, 10% human serum, 72 incubation
# Method: Compounds were tested on their ability to inhibit replication of the human malaria parasite Plasmodium falciparum. To this end, Plasmodium falciparum NF54 parasites were cultured in RPMI1640 medium supplemented with 367 μM hypoxanthine, 25 mM HEPES, 25 mM sodiumbicarbonate and 10% human type A serum in an automated large-scale culture system as described before (Transactions of the Royal Society of Tropical Medicine and Hygiene, 1982. 76: p. 812-818). Compounds were diluted in DMSO and subsequently in culture medium to reach a DMSO concentration of 0.2%. 50 μl of diluted compound was transferred to a black 96 well plate. A culture of P. falciparum strain NF54 malaria parasites was diluted to a parasitaemia of 0.5% and a hematocrit of 3%. 50 μl of this diluted culture was added to each well in the 96 well plate._The outermost wells of the plate were filled with sterile water to prevent evaporation. The established antimalarial dihydroartemisinin (DHA) in DMSO acted as a positive control (MIN signal), and 0.1% DMSO acted as a negative control (MAX signal). The plates were incubated for 72 at 37° C., 3% 02, 5% CO2, 93% N2. Changes in parasite replication relative to the controls were monitored using the DNA-marker SYBR Green as described previously (Antimicrob Agents Chemother 48:1803-6). Data were analyzed by logistic regression using the formula: Y=Bottom+(Top-Bottom)/(1+10̂((Log IC50−X)*HillSlope)) and a least squares method to find the best fit.
# Using similar methods, IC50 values were determined for a variety of inverted pantothenamides, as listed in table 1 (see section: ‘Detailed description of the invention’)
# [2] = test system: Staphylococcus epidermidis; assay: Bacterial growth assay and MIC determination, S. epidermidis; type: cell-based
# Method: (§1) Strains of Escherichia coli, Staphylococcus aureus and Staphylococcus epidermidis, were grown overnight in 1% Bacto tryptone medium (BD, Sparks, Md.). Streptococcus pyogenes was grown overnight in Bacto Todd Hewitt Broth medium (BD, Sparks, Md.). Cultures were then diluted 1:1,000 in fresh assay medium supplemented with or without 20% fetal bovine serum (FBS; HyClone, Celbio, Logan, Utah) and added to 96-well sterile enzyme-linked immunosorbent assay (ELISA) plates (100 μl per well). The compounds to be tested were diluted in the medium without serum and added to the bacteria (100 μl per well). Plates were incubated at 37° C., and bacterial growth was monitored over time by reading the optical density at 490 nm using a microplate reader (model 450; Bio-Rad Laboratories Inc., Hercules, Calif.). Streptococcus pneumoniae strains were grown to mid-log phase (OD620 of 0.3) and stored in 15% glycerol at […] till further use. Minimal inhibitory concentration (MIC) of antibiotics was determined according to standard procedures. Bacteria were diluted 10-fold in Mueller-Hinton medium (BD, Sparks, Md.) and added to 96-well sterile ELISA plates (150 μl per well). The compounds to be tested were diluted in the medium without serum and added to the bacteria (150 μl per well). Plates were incubated overnight at 37° C. in 5% CO2. The MIC was defined as the lowest concentration of compound at which no growth was visible with the naked eye.
# [3] = test system: P. falciparum gametocytes; assay: microbe, parasite or virus in culture; type: cell-based, Plasmodium falciparum; settings: Plasmodium falciparum; 72 hour incubation; read-out: Gametocyte viability (pLDH) IC50
# Method: Compounds were tested for their ability to affect the viability of gametocytes, the sexually committed blood stages of P. falciparum that underlie transmission to the mosquito vector. To this end, two different assays were performed. The first assay monitored pLDH activity as a measure of viability of gametocytes (J Antimicrob Chemother. 2013 September; 68(9):2048-58). The second assay monitored the ability of gametocytes to form a female gamete by detection of the gamete-specific marker Pfs25. Plasmodium falciparum NF54 parasites were cultured in RPMI1640 medium supplemented with 367 μM hypoxanthine, 25 mM HEPES, 25 mM sodiumbicarbonate and 10% human type A serum in an automated large-scale culture system as described before (Transactions of the Royal Society of Tropical Medicine and Hygiene, 1982. 76: p. 812-818). Cultures were treated with 50 mM N-acetyl-D-glucosamine from day 4 till day 9 to kill asexual parasites. On day 11 gametocytes were isolated by discontinuous 63% Percoll gradient centrifugation. Compounds were diluted in DMSO and subsequently in culture medium to reach a DMSO concentration of 0.2%. To measure the effect of compounds of pLDH activity, gametocytes were seeded at a density of 3.5×10^4 gametocytes per well in a black 384 well plate in 30 μl of culture medium, and 30 μl of diluted compound was added. Following a 72 hour incubation at 37° C., 98% humidity, 93% N2, 4% CO2 and 3% O2, gametocyte viability was measured by a modified plasmodium lactate dehydrogenase assay by using resazurin as a substrate as previously described (Nature, 2013. 504(7479): p. 248-53). Assays were performed in quadruplicate (two different plates with two different gametocyte batches) and all plates included controls MIN (1 μM DHA), MAX (0.1% DMSO) and a serial dilution of reference compound dihydroartemisinin (DHA).
# [4] = test system: P. falciparum gametocytes; assay: Gametocyte female gametogenesis capacity assay (Pfs25 AlphaLISA); type: cell-based; settings: Plasmodium falciparum; 72 hours incubation, Table 3; read-out: Gametocyte gametogenesis capacity (Pfs25) IC50
# Method: To monitor compound effects on the ability of a gametocyte to form a female gamete, day 11 (stage IV) gametocytes were seeded at a density of 4×10^5 gametocytes per well in a V-bottom plate in 50 μl culture medium. 50 μl of diluted compound was added to the gametocytes (0.1% DMSO final concentration) and plates were incubated for 72 hours at 37° C., 98% humidity, 93% N2, 4% CO2 and 3% O2. Subsequently, gametogenesis was induced by adding xanthurenic acid to a final concentration of 40 μM and plates were incubated for 16 hours at 20° C. Gametes were detected in a homogeneous proximity immunoassay on basis of Pfs25 expression by use of AlphaLISA technology (Perkin Elmer). All steps were performed at 20° C. Gametes were washed twice with PBS, lysed for 15 min in 10 μl 10 mM Tris pH 8.0/1% laurylsarcosyl/1 mM phenylmethanesulfonyl fluoride and combined with 10 μl 5 nM biotinylated mouse anti-Pfs25 monoclonal antibody 32F6244 in a white 384 well optiplate (Perkin Elmer). After 1 hour incubation 15 μl of 33 μg/ml acceptorbeads coated with mouse anti-Pfs25 monoclonal antibody 32F81 were added. After 1 hour incubation, 15 μl 33 μg/ml Streptavidin-conjugated donorbeads were added. Finally, after 1 hour incubation luminescence signals were monitored at the 615 nm emission wavelength following excitation at 680 nm using a fluorometer (Biotek Synergy 2). All compounds were tested in duplicate (24 hr) or triplicate (1 and 72 hr). Controls included MIN (0.1 μM epoxomicin) and MAX (0.1% DMSO). Data were analyzed by logistic regression using the formula: Y=Bottom+(Top−Bottom)/(1+10̂((Log IC50−X)*HillSlope)) and a least squares method to find the best fit.
# [5] = test system: Escherichia coli; assay: Bacterial growth assay and MIC determination, E. coli; type: cell-based; settings: serum −
# Method: as §1
# [6] = test system: Staphylococcus aureus; assay: Bacterial growth assay and MIC determination, S. aureus; type: cell-based; settings: for antibiotic activity when tested in the presence of serum: 10% serum
# Method: as §1
# [7] = test system: Streptococcus pneumoniae; assay: MIC determination, S. pneumoniae; type: cell-based; settings: for MIC: Streptococcus pneumoniae
# Method: Streptococcus pneumoniae strains were grown to mid-log phase (OD620 of 0.3) and stored in 15% glycerol at […] till further use. Minimal inhibitory concentration (MIC) of antibiotics was determined according to standard procedures. Bacteria were diluted 10-fold in Mueller-Hinton medium (BD, Sparks, Md.) and added to 96-well sterile ELISA plates (150 μl per well). The compounds to be tested were diluted in the medium without serum and added to the bacteria (150 μl per well). Plates were incubated overnight at 37° C. in 5% CO2. The MIC was defined as the lowest concentration of compound at which no growth was visible with the naked eye.
# [8] = test system: Streptococcus pyogenes; assay: Bacterial growth assay and MIC determination, S. pyogenes; type: cell-based; settings: S. pyogenes, serum −
# Method: as §1
# [9] = Pharmacokinetic study in rats; type: in vivo
# Method: To address the question if increased stability would also lead to improved bioavailability in vivo, a pharmacokinetic study was performed. Briefly, the pantothenamides N5-Pan (an antibacterial compound) and CXP18.3-002 (an antimalarial compound), and their corresponding inverted amides CXP18.6-013 and CXP18.6-006 were administered to rats at 50 mg/kg dissolved in saline. Blood samples were collected from 3 rats before the experiment and at 0.25, 0.5, 1, 2, 4, 6, 8, 12 and 24 h. The concentrations of the compounds were analyzed by LC-MS/MS (AB Sciex API-4000 system). Data were analyzed by the Non-compartmental analysis tool of Phoenix WinNonlin (Version 6.3).
# [10] = test system: Plasmodium berghei strain 676c11 (PbGFP-Luc); assay: In vivo rodent malaria model; settings: female Wistar rats, 6 mg/kg orally three times a day, day 5-8
# Excerpt: Female mice (C57 Black 6, 9-10 weeks of age at the start of the experiment) and female rats (Wistar, 150-200 grams at the beginning of the experiment) were housed under standard conditions and experiments were approved by the institutional ethical committee on animal care and experimentation of Radboud University Medical Centre (Nijmegen).
# To test our compounds in an in vivo malaria model we used a well described rodent malaria model (Zuckerman and Yoeli, J Infect Dis. 94, 225-36). First, donor mice were infected by 0.2 ml cryopreserved infected blood stocks containing the transgenic Plasmodium berghei strain 676c11 (PbGFP-Luc). After four days the mice were sacrificed and their blood was collected. The parasitemia in the blood from the mice was calculated as percentage of infected red blood cells (RBC) by Giemsa-stained blood smears. Infected blood was diluted to 5×10^7 parasites per ml and 0.2 ml was i.p. injected in rats (inoculation of 10′ parasites per rat). Treatment with chloroquine (6 mg/kg), CXP18.6-017 (100 mg/kg) and CXP18.6-052 (100 mg/kg) started 5 days post inoculation and where given orally three times a day until day eight. From day 5 blood samples were collected and parasitemia was determined by analysis of Giemsa-stained blood smears. The infection and treatment regimes were well tolerated by the animals.
# [11] = Staphylococcus epidermidis, Table 1, most sensitive species S. epidermidis (SE), read-out: MIC (μg/ml) for most sensitive bacterial species
# [12] = Escherichia coli, read-out: MIC
# [13] = Staphylococcus aureus, S. aureus, serum + (10% serum), read-out: MIC
# [14] = Staphylococcus aureus, S. aureus, serum −, read-out: MIC
# [15] = Staphylococcus aureus, Table 1, most sensitive species S. aureus (SA), read-out: MIC (μg/ml) for most sensitive bacterial species
# [16] = S. pneumoniae, serum −, read-out: MIC
# [17] = Streptococcus pyogenes, read-out: MIC
# [18] = Staphylococcus epidermidis, S. epidermidis, serum −, read-out: MIC
# [19] = rat, blood, 50 mg/kg in saline, oral administration
SMILES,IC50 [1] [µM],"MIC [2, 11] [µg/mL]","MIC [5, 12] [µg/mL]","MIC [6, 13] [µg/mL]","MIC [6, 14] [µg/mL]","MIC [7, 16] [µg/mL]","MIC [8, 17] [µg/mL]","MIC [2, 18] [µg/mL]",further results
Cc1ccc(CCC(=O)NCCNC(=O)[C@H](O)C(C)(C)CO)c(F)c1 [CXP18.6-064],0.042,2,–,–,–,–,–,–,IC50 [3]: 42 nM; IC50 [4]: 17 nM
CCCCCCCC(=O)NCCNC(=O)[C@H](O)C(C)(C)CO [CXP18.6-012],0.34,–,> 256,4,1,> 32,32,16,"antibiotic activity when tested in the presence of serum ([6]; S. aureus): retained activity; MIC [6, 15]: 1 µg/mL; activity of inverted pantothenamide compared to the parent compound ([7]; S. pneumoniae): loss of activity"
"CCCCCNC(=O)CCNC(=O)[C@H](O)C(C)(C)CO [Compound N5-Pan, N-pentylpantothenamide, reference compound]",–,–,64,–,8,0.25,–,32,detection in blood following oral administration ([9]; 50 mg/kg): could not or hardly be detected
"CCN(CC)CCCC(C)Nc1ccnc2cc(Cl)ccc12 (stereo not shown) [chloroquine, reference compound]",–,–,–,–,–,–,–,–,parasitemia [10]: reduced parasitemia to nearly undetectable levels within 3 days
"CCCCCCCCCNC(=O)CCNC(=O)[C@H](O)C(C)(C)CO [Compound N9-Pan, reference compound]",–,–,–,–,–,–,–,–,"MIC [5]: >256 µg/mL; MIC ([6]; S. aureus, serum + (10% serum)): >256 µg/mL; MIC ([6]; S. aureus, serum −): 0.5 µg/mL; MIC [8]: 16 µg/mL; MIC ([2]; S. epidermidis, serum −): 0.25 µg/mL"
"CCCCCCCNC(=O)CCNC(=O)[C@H](O)C(C)(C)CO [Compound N7-Pan, N-heptylpantothenamide, reference compound]",–,–,128,> 256,0.5,2,2,0.5,"MIC ([6]; S. aureus, serum + (10% serum)): >256 µg/mL"
CCCCCCCCCC(=O)NCCNC(=O)[C@H](O)C(C)(C)CO [CXP18.6-014],7.5,1,> 256,1,1,> 32,32,1,"antibiotic activity when tested in the presence of serum ([6]; S. aureus): retained activity; MIC [6, 15]: 1 µg/mL"
CCCCCC(=O)NCCNC(=O)[C@H](O)C(C)(C)CO [CXP18.6-013],0.63,1,> 256,–,32,4,2,1,"AUC(0-inf) [9, 19]: 11600 ng·h/mL; Cmax [9, 19]: 12100 ng/mL; Tmax [9, 19]: 19.8 min; half-life ([9]; rat, blood, 50 mg/kg in saline, oral administration, elimination phase): 354 min; MIC ([7]; Table 1, S. pneumoniae (SPn), read-out: MIC (μg/ml) for most sensitive bacterial species): 4 µg/mL; activity of inverted pantothenamide compared to the parent compound ([2]; S. epidermidis): gain of antimicrobial activity"
